Measured values: US10752612B2, “PLK4 inhibitors” (LUDWIG INSTITUTE FOR CANCER RESEARCH LTD, priority 2015, dated 2020)

Legend:
p38 = conditions: RPE1, osmotic stress
Description: MAPKAPK-2 activation assay. RPE1 cells on 10 cm plates were treated with DMSO or 10 μM SB203580 for 2 hours prior to induction of stress.
Western blotting. Asynchronously growing cells from 10 cm plates were harvested at 50-80% confluence and lysed by sonication in RIPA buffer+protease and phosphatase inhibitor cocktail (Thermo Scientific). Cell extracts were stored at −80° C. until use. Before use, concentrations of extracts were normalized using a Bio-Rad Protein Assay (Bio-Rad). For every sample, 25-50 μg protein/lane was run on Mini-PROTEAN gels (Bio-Rad), and transferred to PVDF membranes using a TransBlot Turbo system (Bio-Rad).

[1] = molecular target: T1, human Plk4 kinase domain (aa 2-275) (Homo sapiens, UniProt O00444); experiment: Plk4 kinase assay (ADP-Glo); type: biochemical; conditions: Table 1
T1 construct: purified 6×His-tagged human Plk4 kinase domain (aa 2-275); 6xHis; made in house; host or cells: E. coli
T1 sequence (O00444 2-275): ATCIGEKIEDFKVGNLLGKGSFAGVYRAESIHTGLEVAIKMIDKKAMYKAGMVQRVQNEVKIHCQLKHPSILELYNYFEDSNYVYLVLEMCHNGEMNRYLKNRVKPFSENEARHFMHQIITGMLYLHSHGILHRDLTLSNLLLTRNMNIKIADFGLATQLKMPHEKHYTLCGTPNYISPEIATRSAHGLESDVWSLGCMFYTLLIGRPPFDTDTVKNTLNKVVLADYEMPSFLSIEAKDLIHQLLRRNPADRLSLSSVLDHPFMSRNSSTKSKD
Outline: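 Enzyme at 2.5-10 nM final, pH 8.0, reacted 4-16 hours at 25° C; ADP generation read by ADP-Glo luminescence. Ki derived from IC50 by Cheng-Prusoff or, for tight binders, Copeland formalism.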

Row | SMILES | phosphorylation of MAPKAPK-2 by p38 (p38) | IC50 [1] [nM]
1 | C[S+]([O-])c1ccc(-c2nc(-c3ccncc3)c(-c3ccc(F)cc3)[nH]2)cc1 (stereo not drawn) [SB203580] | blocks phosphorylation of MAPKAPK-2 | –
2 | CCOc1c(Nc2cc(C)[nH]n2)nc(Sc2ccc(NC(=O)C3CC3)cc2)nc1N(C)C [drawing 129] | – | 100 to 1000
3 | COc1c(Nc2cc(C)[nH]n2)nc(Sc2ccc(S(=O)(=O)Cc3cccc([N+](=O)[O-])c3F)cc2F)nc1N1CCCCC1 [drawing 379] | – | < 1000
